Data reported in PubChem BioAssay AID1745844 (Carcinogenic Potency Database (CPDB), 2022).
“And” between values parts separate entries of the source, which are not always exact repeats. Equal values may be shown once. The source made the active and inactive calls. The rule behind the calls is not given here.

Tested on: rodent lifetime carcinogenesis bioassay, tumor incidence TD50
Assay: carcinogenic potency in animals, long-term in vivo studies, CPDB compilation (AID 1745844)
Settings: inhaled, dosed 104 weeks, study length 104 weeks; for carcinogen call: site: liver, lesion: one or several types, types not named

SMILES: C=CC(=C)Cl
- TD50 (mouse, strain B6C3F1, males, site: lung, lesion: alveolar/bronchiolar adenoma + alveolar/bronchiolar carcinoma): 17.2 mg/kg/day
- TD50 (mouse, strain B6C3F1, males, site: lung, lesion: alveolar/bronchiolar adenoma): 30.7 mg/kg/day
- TD50 (mouse, strain B6C3F1, males, site: lung, lesion: alveolar/bronchiolar carcinoma): 26.4 mg/kg/day
- TD50 (mouse, strain B6C3F1, males, site: mesentery, lesion: hemangioma + hemangiosarcoma): 37.6 mg/kg/day
- TD50 (mouse, strain B6C3F1, males, site: mesentery, lesion: hemangiosarcoma): 39 mg/kg/day
- TD50 (mouse, strain B6C3F1, males, site: subcutaneous tissue, lesion: hemangiosarcoma): 177 mg/kg/day
- TD50 (rat, strain Fischer 344, females, site: all sites, lesion: mononuclear-cell leukemia): 30.4 mg/kg/day
- TD50 (rat, strain Fischer 344, females, site: any site (literature study), lesion: several types, types named in the paper): 25.4 mg/kg/day
- TD50 (rat, strain Fischer 344, females, site: clitoral gland, lesion: adenoma + adenoma, bilateral + carcinoma + carcinoma, bilateral): 7.14 mg/kg/day
- TD50 (rat, strain Fischer 344, females, site: clitoral gland, lesion: carcinoma + carcinoma, bilateral): 12.4 mg/kg/day
- TD50 (rat, strain Fischer 344, females, site: kidney, lesion: tubule adenoma + tubule carcinoma): 183 mg/kg/day
- TD50 (rat, strain Fischer 344, females, site: kidney, lesion: tubule adenoma): 461 mg/kg/day and 183 mg/kg/day
- TD50 (rat, strain Fischer 344, females, site: lung, lesion: alveolar/bronchiolar adenoma): 279 mg/kg/day
- TD50 (rat, strain Fischer 344, females, site: mammary gland, lesion: carcinoma + fibroadenoma): 20.4 mg/kg/day
- TD50 (rat, strain Fischer 344, females, site: mammary gland, lesion: fibroadenoma): 16.3 mg/kg/day
- TD50 (rat, strain Fischer 344, females, site: oral mucosa + gingiva + mammary gland + pharynx + thyroid gland + tongue, lesion: squamous-cell papilloma + carcinoma + fibroadenoma + squamous-cell carcinoma + follicular-cell adenoma + follicular-cell carcinoma): 23.3 mg/kg/day
- TD50 (rat, strain Fischer 344, females, site: oral mucosa + gingiva + pharynx + tongue, lesion: squamous-cell papilloma + squamous-cell carcinoma): 33.9 mg/kg/day
- TD50 (rat, strain Fischer 344, females, site: oral mucosa + gingiva + pharynx + tongue, lesion: squamous-cell papilloma): 61.2 mg/kg/day
- TD50 (rat, strain Fischer 344, females, site: pharynx + tongue, lesion: squamous-cell carcinoma): 77.8 mg/kg/day
- TD50 (rat, strain Fischer 344, females, site: thyroid gland, lesion: follicular-cell adenoma + follicular-cell carcinoma): 113 mg/kg/day
- TD50 (rat, strain Fischer 344, females, site: tongue, lesion: squamous-cell carcinoma + squamous-cell papilloma): 32.9 mg/kg/day
- TD50 (rat, strain Fischer 344, females, site: tongue, lesion: squamous-cell carcinoma): 91.1 mg/kg/day
- TD50 (rat, strain Fischer 344, females, site: tongue, lesion: squamous-cell papilloma): 53.5 mg/kg/day
- TD50 (rat, strain Fischer 344, females, site: urinary bladder, lesion: transitional-cell carcinoma): 467 mg/kg/day
- TD50 (rat, strain Fischer 344, males, site: all sites, lesion: mesothelioma, malignant): 27.1 mg/kg/day
- TD50 (rat, strain Fischer 344, males, site: any site (literature study), lesion: several types, types named in the paper): 6.12 mg/kg/day
- TD50 (rat, strain Fischer 344, males, site: kidney, lesion: tubule adenoma + tubule carcinoma): 16.1 mg/kg/day
- TD50 (rat, strain Fischer 344, males, site: kidney, lesion: tubule adenoma): 38.9 mg/kg/day and 15.4 mg/kg/day
- TD50 (rat, strain Fischer 344, males, site: lung, lesion: alveolar/bronchiolar adenoma + alveolar/bronchiolar carcinoma): 23.8 mg/kg/day
- TD50 (rat, strain Fischer 344, males, site: lung, lesion: alveolar/bronchiolar carcinoma): 24.5 mg/kg/day
- TD50 (rat, strain Fischer 344, males, site: oral mucosa + gingiva + lung + pharynx + thyroid gland + tongue, lesion: squamous-cell papilloma + alveolar/bronchiolar adenoma + alveolar/bronchiolar carcinoma + follicular-cell adenoma + follicular-c): 5.79 mg/kg/day
- TD50 (rat, strain Fischer 344, males, site: oral mucosa + gingiva + pharynx + tongue, lesion: squamous-cell papilloma + squamous-cell carcinoma): 10.1 mg/kg/day
- TD50 (rat, strain Fischer 344, males, site: oral mucosa + gingiva + pharynx + tongue, lesion: squamous-cell papilloma): 11.1 mg/kg/day
- TD50 (rat, strain Fischer 344, males, site: oral mucosa + gingiva + pharynx, lesion: squamous-cell papilloma): 39.2 mg/kg/day
- TD50 (rat, strain Fischer 344, males, site: thyroid gland, lesion: c-cell adenoma): 20 mg/kg/day
- TD50 (rat, strain Fischer 344, males, site: thyroid gland, lesion: follicular-cell adenoma + follicular-cell carcinoma): 18.7 mg/kg/day
- TD50 (rat, strain Fischer 344, males, site: thyroid gland, lesion: follicular-cell adenoma): 22 mg/kg/day
- TD50 (rat, strain Fischer 344, males, site: tongue, lesion: squamous-cell carcinoma + squamous-cell papilloma): 13.6 mg/kg/day
- TD50 (rat, strain Fischer 344, males, site: tongue, lesion: squamous-cell papilloma): 15.6 mg/kg/day
- TD50 (rat, strain Fischer 344, males, site: urinary bladder, lesion: transitional-cell carcinoma): 99.9 mg/kg/day
- TD50 (rat, strain Fischer 344, males, site: urinary bladder, lesion: transitional-cell papilloma): 468 mg/kg/day
- TD50 (rat, strain Wistar-random, females, site: any site (literature study), lesion: several types, types named in the paper): 37.4 mg/kg/day (inactive)
- carcinogen call (rat, strain Wistar-random, females): negative (inactive)
- TD50 (rat, strain Wistar-random, females, site: mammary gland, lesion: fibroadenoma): 55.1 mg/kg/day (inactive)
- TD50 (rat, strain Wistar-random, males, site: any site (literature study), lesion: several types, types named in the paper): 66.4 mg/kg/day (inactive)
- carcinogen call (rat, strain Wistar-random, males): negative (inactive)
